Assay results from patent US9770026B2, “Substituted pyrimidine compound and uses thereof” (Shenyang Sinochem Agrochemicals R&D Co., Ltd., priority 2012, dated 2017).

Tests used:
[1] = test system: Green peach aphids (Myzus Persicae Sulzer); assay: bioactivity test against green peach aphid, airbrush foliar spray; assay type: in vivo; conditions: death rate after 48 hrs
Experimental: Compounds were dissolved in mixed solvent (acetone:methanol=1:1), and diluted to required concentration with water containing 0.1% of tween 80.
Diamond back moth, armyworm, peach aphid and carmine spider mite were used as targets and the method of spraying by airbrush was used for determination of insecticidal biassays.
Method: Filter papers were put in culture dishes (Diameter=6 cm), and water was dripped on filter papers for preserving moisture. Green peach aphids (Myzus Persicae Sulzer) were maintained on cabbage. Leaves (Diameter=3 cm) of approximately 15-30 aphids were put in the culture dishes. Bioactivity tests were used the method of Airbrush Foliar Spray, pressure=10 psi (0.7 kg/cm2), spray volume=0.5 mL. The studies were conducted at […] 25±1 C in incubator cabinets with 60±5% RH. Survey the survival aphids after 48 hrs and calculate the death rates.

[2] = test system: wheat powdery mildew; assay: protectant activity in vivo against wheat powdery mildew
[3] = test system: cucumber downy mildew; assay: protectant activity in vivo against cucumber downy mildew; conditions: for control effect against cucumber downy mildew (%): protectant activity
[4] = test system: corn rust; assay: protectant activity in vivo against corn rust; conditions: 400 ppm

| SMILES | control (test results against green peach aphid) ([1]; 600 ppm) | protectant activity against wheat powdery mildew in vivo ([2]; 400 ppm) | protectant activity against cucumber downy mildew in vivo ([3]; 50 ppm) | protectant activity against cucumber downy mildew in vivo ([3]; 100 ppm) | protectant activity against cucumber downy mildew in vivo ([3]; 400 ppm) | protectant activity against cucumber downy mildew in vivo ([3]; 25 ppm) | other results |
| --- | --- | --- | --- | --- | --- | --- | --- |
| Cc1ncnc(NCCc2ccc(Oc3ncc(C(F)(F)F)cc3Cl)c(Cl)c2)c1Cl [Compound I-1414] | 100% | 100% | – | – | – | – | control (test results against green peach aphid) ([1]; 100 ppm): 100%; protectant activity against wheat powdery mildew in vivo ([2]; 100 ppm): 100% |
| Cc1nc(Cl)c(Cl)c(NCCc2ccc(Oc3cccc(C(F)(F)F)c3)nc2)n1 [III-2541] | – | 100% | 100% | 100% | 100% | – | – |
| CCc1ncnc(NCCc2ccc(Oc3ccc(Cl)cc3C)nc2)c1Cl [III-290] | – | – | – | – | 100% | – | – |
| Cc1ncnc(NCCc2ccc(Oc3cc(Cl)cc(Cl)c3)cc2)c1Cl [II-25] | 100% | 100% | – | – | 100% | – | – |
| O=[N+]([O-])c1cc(Cl)ccc1Oc1ccc(CCNc2ncnc(C(F)F)c2Cl)cc1 [II-9058] | – | 100% | – | – | 100% | – | – |
| CCc1ncnc(NCCc2ccc(Oc3cc(Cl)ccc3Cl)nc2)c1Cl [III-263] | 100% | 100% | 100% | 100% | 100% | 100% | control effect against cucumber downy mildew (%) ([3]; 6.25 mg/L): 70%; control effect against cucumber downy mildew (%) ([3]; 12.5 mg/L): 98%; control effect against cucumber downy mildew (%) ([3]; 25 mg/L): 100%; control effect against cucumber downy mildew (%) ([3]; 50 mg/L): 100%; control effect against cucumber downy mildew (%) ([3]; 100 mg/L): 100%; control effect against cucumber downy mildew (%) ([3]; 400 mg/L): 100% |
| Cc1nc(Cl)c(Cl)c(NCCc2ccc(Oc3cccc(Cl)c3)nc2)n1 [III-2526] | – | – | 100% | 100% | 100% | 100% | protectant activity against corn rust in vivo [4]: 100% |
| Cc1nc(Cl)c(Cl)c(NCCc2ccc(Oc3ccccc3)nc2)n1 [III-2521] | – | – | 100% | 100% | 100% | 100% | protectant activity against corn rust in vivo [4]: 100%; control effect against cucumber downy mildew (%) ([3]; 12.5 mg/L): 100%; control effect against cucumber downy mildew (%) ([3]; 25 mg/L): 100%; control effect against cucumber downy mildew (%) ([3]; 50 mg/L): 100%; control effect against cucumber downy mildew (%) ([3]; 100 mg/L): 100%; control effect against cucumber downy mildew (%) ([3]; 400 mg/L): 100%; protectant activity against cucumber downy mildew in vivo ([3]; 12.5 ppm): 100% |
| Cc1ncnc(NCCc2ccc(Oc3ncc(C(F)(F)F)cc3Cl)cc2)c1Br [Compound I-1878] | 100% | – | – | – | 100% | – | protectant activity against corn rust in vivo [4]: 100%; control (test results against green peach aphid) ([1]; 10 ppm): 100%; control (test results against green peach aphid) ([1]; 100 ppm): 100% |
| Cc1ncnc(NCCc2ccc(Oc3ccc([N+](=O)[O-])c(Cl)c3C)cc2)c1Cl [II-236] | 100% | – | 100% | 100% | 100% | 100% | control effect against cucumber downy mildew (%) ([3]; 25 mg/L): 100%; control effect against cucumber downy mildew (%) ([3]; 50 mg/L): 100%; control effect against cucumber downy mildew (%) ([3]; 100 mg/L): 100%; control effect against cucumber downy mildew (%) ([3]; 400 mg/L): 100% |
| Cc1ncnc(NCCc2ccc(Oc3c([N+](=O)[O-])cc(Cl)cc3C(F)(F)F)cc2)c1Cl [II-202] | – | – | – | – | 100% | – | – |
